Series [1] can be described thus: Liver microsome stability, human. Type of series: in vitro ADME, Human (pooled male and female). The conditions noted are these: both sexes; human liver microsomes, 1 μM compound, 0.5 mg/ml microsomal protein, 37° C., 2 mM NADPH. The protocol: The stability of the title compound in the presence of liver microsomes was tested at 1 μM compound and 0.5 mg/ml rat or human microsomal protein, at 37° C. with 2 mM NADPH (standard in vitro screening concentrations). […] The “t1/2” values are the maximum time employed for the respective assays.
A general note: Liver microsomes are a subcellular fraction often used to study metabolism.

The nature of series [2]: Solution stability in PBS, simulated gastric fluid and simulated intestinal fluid. The class given is physicochemical. The conditions noted are these: 37° C. The protocol:
The stability of the title compound was tested in the following media, in the following concentrations: (i) 1 μM in mouse (male C57BL/6) plasma, (ii) 1 μM in PBS (with Ca and Mg) (control treatment); (iii) 5 μM in stimulated gastric fluid (SGF; 0.2% NaCl; 84 mM HCl; 0.32% pepsin; pH 1.2); (iv) 5 μM in stimulated intestinal fluid (SIF; 50 mM KP, pH 6.8; 10 mg/ml pancreatin); and (v) 5 μM in PBS (+Ca and Mg) (control treatment). The results are as follows: (i) 1 μM in mouse plasma, t1/2>6 hr at 37° C.; (ii) 1 μM in PBS, t1/2>6 hr at 37° C.; (iii) 5 μM in SGF, t1/2>3 hrs at 37° C.; (iv) 5 μM in SIF, t1/2>3 hrs at 37° C.; and (v) 5 μM in PBS, t1/2>3 hr at 37° C. The “t1/2” values are the maximum time employed for the respective assays.

For series [3], the system named is 3T3-L1 adipocytes. The series can be described thus: 13C6-glucose uptake in 3T3-L1 adipocytes exposed to 4HNE/H2O2 (Example 7). Type of series: cell-based, mouse. The conditions noted are these: 0.1, 1, 10 and 100 μM compound for 2 h, then 4HNE/H2O2 100 μM each 1 h; FIG. 5; dihydrochloride. As for the experimental part: 3T3-L1 Mouse Embryonic Fibroblasts, ATCC® CL-173™ were differentiated to adipocytes using chemically-induced differentiation according to the ATCC guidelines. Differentiated 3T3-L1 Adipocyte 4e^6 cell were incubated overnight in glucose free media (RPMI ref. #11879 Gibco) containing 1% dialyzed fetal bovine serum (ref. #26400 Gibco) at 37° C. Cells were washed with and incubated for 1 h with glucose free media before compound exposure. Cells were incubated with and without increasing concentration (0.1, 1, 10 and 100 μM) of (S)-2-amino-6-((3-aminopropyl)amino)hexanoic acid dihydrochloride (title compound) for 2 h at 37° C., followed by 3 wash steps in glucose free phosphate buffer. […]
Cells were washed with PBS, followed by addition of glucose free DMEM medium containing 20 mM of ^13C6 glucose, 10 mM, 2-fluorodeoxyglucose (2-FDG) and insulin 10 pM (Sigma I5500) incubated for 1 hour at 37° C. 2-FDG is an inhibitor of glucose metabolism, thus preventing glucose breakdown and allowing its accumulation to further be measure and quantified. […]
The detection of the ^13C6 glucose, was carried out using a Waters Xevo™ triple quadrupole tandem mass spectrometer (Waters Corp., Manchester, UK). […] Chromatographic and mass spectrum data were collected and analyzed with Waters MassLynx v4.1 software. […]

In series [4] the test system is mice fed high fat diet (HFD). In words: Fasting glucose and glucose tolerance test in HFD mice (Example 11). The conditions noted are these: two weeks. Type of series: in vivo, C57BL/6J mice. The protocol: Thirty-two C57BL/6J mice 8-weeks old were selected and randomly separated. The mice (n=8) were fed ad libitum for two weeks with either CHOW diet or high fat diet (HFD, 60% of fat content). Each group was divided in half 8 animals received regular water and the other 8 received (S)-2-amino-6-((3-aminopropyl)amino)hexanoic acid dihydrochloride dissolved in water so as to administer about 10 mg/kg of the drug body weight per mouse, per day. As an additional experimental control (n=8), a group of mice receiving HFD also received pioglitazone (10 mg/kg). Poglitazone is a well-known anti-diabetic agent. It has the ability to increase glucose uptake into the cells. […] At the end of the two weeks, animals were fasted for 5 hours, weighed, and their tails were clipped to measure fasting blood glucose levels. Immediately after, glucose was administered intraperitoneally (1 mg/g of body weight). Glucose levels were measured at 20, 40, 80 and 140 minutes after glucose administration in a glucose time test (GTT). Animals were euthanized under anesthesia (isoflurane). Blood, liver, fat and muscle tissues were collected and flash frozen for the studies. […]

“Also recorded” adds a separate entry of the source. Where a name gives a salt, the structure may show the parent alone. Where only a bound is given, the exact number is not on record here.

In general, half-life refers to the time in which the quantity being followed falls by half. A higher half-life goes with slow decline. Broadly, the microsomal CLint is a measure of how fast metabolising enzymes remove a compound, apart from limits set by blood flow. The low end stands for greater metabolic stability, the high end for faster metabolism.

Take `NCCCNCCCC[C@H](N)C(=O)O` [APL, (S)-2-amino-6-((3-aminopropyl)amino)hexanoic acid dihydrochloride]: the half-life at 1 μM is over 1 h in series [1]; over 6 h in series [2] (1 μM in PBS (with Ca and Mg)). The compound also displayed an intrinsic clearance (microsomal CLint) at 1 μM in series [1] of under 23 µL/min/mg. In addition, the half-life at 5 μM is over 3 h in series [2] (5 μM in PBS (+Ca and Mg)); over 3 h in series [2] (simulated gastric fluid (SGF) with pepsin, 5 μM in SGF (pH 1.2, pepsin)); over 3 h in series [2] (simulated intestinal fluid (SIF) with pancreatin, 5 μM in SIF (pH 6.8, pancreatin)). The “glucose uptake impairment induced by 4-HNE and H2O2” value in series [3] was “able to prevent the glucose uptake impairment induced by 4-HNE and H2O2, in a dose-dependent fashion; also recorded: prevented glucose uptake-impairing effect of 4-HNE and H2O2, in a dose-dependent fashion”. Moreover, the glucose tolerance test result in series [4] (10 mg/kg, glucose 1 mg/g i.p., FIG. 8C) is recorded as “drastically improved”. Moreover, the fasting glucose levels entry in series [4] (about 10 mg/kg per day, 5 hours fasted, FIG. 8B) is “reduced fasting glucose levels”.

The record behind these values is patent publication US11596615B2, “Compositions and methods for treatment of insulin resistance” (Temple University—Of The Commonwealth System Of Higher …, priority 2016, dated 2023).
